For this experiment, the system named is MDA-MB-468 complex spheroids with HUVEC/MSC, viability. Description: Anticancer human tumor MDA-MB-468 cell line growth inhibition.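 For all read-outs here: spheroids exposed to agents for seven days.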 Particulars: for viability, T/C: stronger effect = lower value. From the text:
Multicellular complex tumor spheroid response to LSD1 Inhibitor Iadademstat in combination with a variety of drugs and investigational agents in selected tumor cell lines
The current study was undertaken to assess response to LSD1 inhibitors in combination with standard-of-care drugs and investigational agents in solid tumor complex spheroid models as well as in the K-562 leukemia. Complex spheroids include a stromal component modeled by human endothelial cells (HUVEC) and fibroblasts modeled by human mesenchymal stem cells (MSCs). The concentration ranges selected for each drug and investigational agent were based upon clinically achievable concentrations if the clinical Cmax of the agent was known.
Compounds. The drugs and investigational agents used in this study are listed on Table 1. All of the agents used, including staurosporine (NSC755774) and gemcitabine (NSC613327), were obtained from the Developmental Therapeutics Program, NCI. FDA-approved anticancer drugs are available from the NCI at http://dtp.nci.nih.gov/branches/dscb/oncology_drugset_explanation.html. Drugs and investigational agents were >95% pure by proton nuclear magnetic resonance (NMR) and liquid chromatography/mass spectrometry (LC/MS). Stock solutions were prepared at 400x in DMSO, stored at -70 degrees C, and diluted in fresh medium prior to their use. The final concentration of DMSO in cell culture wells never exceeded 0.25% (v/v). The FDA-approved anticancer drug set is available from the Developmental Therapeutics Program at https://dtp.cancer.gov/organization/dscb/obtaining/available_plates.htm. All drugs and investigational agents were tested over a range starting from a high concentration at or near the clinical Cmax and decreasing in half-log increments. If the clinical Cmax for an agent had not been determined, the highest concentration tested was 10 microM.
Cell Lines. The patient-derived cancer cell (PDC) lines: 292921-168-R-J2-PDC, K24384-001-R-PDC, and 521955-158-R2-J5-PDC pancreatic carcinomas, 556581-035-R-J1 ovarian carcinoma, 324938-238-R-J1-PDC, 855422-203-R-J1-PDC and 883617-216-R-J1-PDC urothelial bladder carcinomas, 743489-274-T-PDC renal cell carcinoma, 138582-R-J1 Merkel cell tumor, K60290-347-R-J1 and K57222-313-R-J1-PDC glioblastomas, 653999-131-R-J2-PDC, LG0703-F948-PDC, and 349418-098-R-PDC non-small cell lung carcinomas, 885512-296-R-J2-PDC, 171881-019-R-J1-PDC breast carcinomas and 186277-243-T-J2-PDC and 233499-124-R-J2-PDC colon carcinomas were obtained from the NCI Patient-Derived Models Repository (PDMR, https://pdmr.cancer.gov). The established cell lines NCI/ADR-RES (RRID:CVCL_14520 and OVCAR-5 (RRID:CVCL_1628) ovarian carcinomas, 786-O (RRID:CVCL_1051) and A498 (RRID:CVCL_A498) renal cell carcinoma, NCI-H211 (ATCC, cat. CRL-5824; RRID:CVCL_1529), NCI-H196 (ATCC, cat. CRL-5823, RRID:CVCL_1509), SW 1271 (ATCC, cat. CRL-2177, RRID:CVCL_1716) and NCI-H1876 (ATCC, cat. CRL-5902, RRID:CVCL_1503) small cell lung carcinomas, MDA-MB-231 (RRID:CVCL_0062) and MDA-MB-468 (RRID:CVCL_0419)breast carcinomas (10-12). Pooled donor human umbilical vein endothelial cells (HUVEC, Lonza, cat. CC-2519) and human mesenchymal stem cells (hMSC, Lonza, cat. PT-2501) were purchased from Lonza (Walkersville, MD).
Cell Culture. All cells were maintained in an incubator at 37 degrees C and 5% CO2 with 95% humidity. The PDC lines were cultured according to standard operating procedures established by the NCI PDMR (https://pdmr.cancer.gov). Briefly all PDCs were thawed and cultured in Matrigel-coated flasks prepared with a working solution of 1X Ham's F-12 nutrient mix, without supplementation (Invitrogen, Waltham, MA, cat. 11765054), 100 U/mL penicillin-streptomycin (Invitrogen, cat. 15140122), and 2.5% Matrigel (Corning Inc., Corning, NY, cat. 354248) for the first three passages. […]

The mark [1] stands for this setting: curve of first compound, second compound 0.1 µM.
Setting [2] is: curve of first compound, second compound 0.316 µM.
[3] abbreviates: curve of first compound, second compound 1 µM.
Where [4] appears, read: curve of first compound, second compound 3.16 µM.
Where [5] appears, read: curve of first compound, second compound 10 µM.

Usually viability, T/C stands for the result in the treated group divided by that in the control group, in per cent. Usually IC50 stands for the point on the concentration scale where inhibition reaches its midpoint.

Several values for one entry are separate records, joined by “and”; a condition that tells them apart may be missing. Equal entries are not always repeated.

On to `CC(C)c1c(-c2ccccc2)nc2c(C#N)c[nH]n2c1=O`, for which the viability, T/C was 111% and 87.3% (compound 0.0316 µM); 101% and 89.5% (compound 0.1 µM); 91.4% and 78.7% (compound 0.316 µM); 101% and 96.7% (compound 1 µM); 92% and 101% (compound 3.16 µM); 72.1% and 88.9% (compound 10 µM). In addition, the IC50 (curve of compound) is above 10000 nM.
Turning to `COc1ccc([C@@H](O)c2cc(-c3ncnc4cc(N5CCOCC5)ccc34)c(F)cc2Cl)nn1`, the viability, T/C is, setting by setting: (compound 0.0316 µM) 91.7% and 90.3%; (compound 0.1 µM) 86.8% and 90.4%; (compound 0.316 µM) 82.5% and 71.8%; (compound 1 µM) 58.3% and 51%; (compound 3.16 µM) 32.1% and 29.9%; (compound 10 µM) 14% and 6.59%. Besides, the IC50 (curve of compound) was 1480 nM and 1130 nM.
For the compound `NC1CC1c1ccc(-c2cccc(O)c2)cc1` (configuration not stated), where the note is “compound alone, run of 02/01/2022”, the IC50 was above 10000 nM.
As to `NC1CCC(NC2CC2c2ccccc2)CC1` (configuration not stated), the viability, T/C (compound 0.316 µM) was 96.4% and 88.1% and 98.6%. Moreover, the IC50 (compound alone, run of 01/24/2022) is > 10000 nM and 9570 nM.
Regarding `COc1cc(C2c3cc4c(cc3C(OC3OC5COC(C)OC5C(O)C3O)C3COC(=O)C23)OCO4)cc(OC)c1O` (configuration not stated) + NC1CC1c1ccc(-c2cccc(O)c2)cc1, the IC50 under setting [1] is 57.7 nM; the IC50 under setting [2] came out at 50.8 nM; the IC50 under setting [3] turned out to be 45.5 nM; the IC50 under setting [4] stood at 47.2 nM; the IC50 under setting [5] was 21 nM. The viability, T/C is 88.3% (second compound 0.1 µM, first compound 0.00949 µM); 79.1% (second compound 0.1 µM, first compound 0.03 µM); 27.5% (second compound 0.1 µM, first compound 0.0949 µM); 13% (second compound 0.1 µM, first compound 0.3 µM); 7.49% (second compound 0.1 µM, first compound 0.949 µM); 3.87% (second compound 0.1 µM, first compound 3 µM). Also, the viability, T/C (second compound 0.316 µM, first compound 0.00949 µM) is 107%; the viability, T/C (second compound 0.316 µM, first compound 0.03 µM) was 69.9%; the viability, T/C (second compound 0.316 µM, first compound 0.0949 µM) was 26%; the viability, T/C (second compound 0.316 µM, first compound 0.3 µM) was 11.5%; the viability, T/C (second compound 0.316 µM, first compound 0.949 µM) is 7.32%; the viability, T/C (second compound 0.316 µM, first compound 3 µM) is 3.63%. The viability, T/C was 90% (second compound 1 µM, first compound 0.00949 µM); 64.2% (second compound 1 µM, first compound 0.03 µM); 24.7% (second compound 1 µM, first compound 0.0949 µM); 11.3% (second compound 1 µM, first compound 0.3 µM); 6.82% (second compound 1 µM, first compound 0.949 µM); 3.4% (second compound 1 µM, first compound 3 µM). In addition, the viability, T/C (second compound 3.16 µM, first compound 0.00949 µM) is 89.8%; the viability, T/C (second compound 3.16 µM, first compound 0.03 µM) is 68.7%; the viability, T/C (second compound 3.16 µM, first compound 0.0949 µM) was 21%; the viability, T/C (second compound 3.16 µM, first compound 0.3 µM) is 11%; the viability, T/C (second compound 3.16 µM, first compound 0.949 µM) was 6.58%; the viability, T/C (second compound 3.16 µM, first compound 3 µM) was 3.35%. Also, the viability, T/C is, setting by setting: (second compound 10 µM, first compound 0.00949 µM) 68.2%; (second compound 10 µM, first compound 0.03 µM) 42.8%; (second compound 10 µM, first compound 0.0949 µM) 15.8%; (second compound 10 µM, first compound 0.3 µM) 14.5%; (second compound 10 µM, first compound 0.949 µM) 8.05%; (second compound 10 µM, first compound 3 µM) 3.42%.
For `Nc1ncn(C2CC(O)C(CO)O2)c(=O)n1` (configuration not stated) + NC1CC1c1ccc(-c2cccc(O)c2)cc1, the IC50 is, setting by setting: under setting [1], 16.4 nM; under setting [2], 19.3 nM; under setting [3], 17.9 nM; under setting [4], 15 nM; under setting [5], 9.07 nM. Further, the viability, T/C reads like this: (second compound 0.1 µM, first compound 0.00316 µM) 87.3%; (second compound 0.1 µM, first compound 0.01 µM) 66.9%; (second compound 0.1 µM, first compound 0.0316 µM) 27.2%; (second compound 0.1 µM, first compound 0.1 µM) 12.3%; (second compound 0.1 µM, first compound 0.316 µM) 9.59%; (second compound 0.1 µM, first compound 1 µM) 7.38%. Besides, the viability, T/C (second compound 0.316 µM, first compound 0.00316 µM) is 89.9%; the viability, T/C (second compound 0.316 µM, first compound 0.01 µM) is 74.8%; the viability, T/C (second compound 0.316 µM, first compound 0.0316 µM) was 31.2%; the viability, T/C (second compound 0.316 µM, first compound 0.1 µM) was 11.8%; the viability, T/C (second compound 0.316 µM, first compound 0.316 µM) was 8.68%; the viability, T/C (second compound 0.316 µM, first compound 1 µM) is 6.69%. Moreover, the viability, T/C runs as follows: (second compound 1 µM, first compound 0.00316 µM) 92.4%; (second compound 1 µM, first compound 0.01 µM) 72.2%; (second compound 1 µM, first compound 0.0316 µM) 27.8%; (second compound 1 µM, first compound 0.1 µM) 12.6%; (second compound 1 µM, first compound 0.316 µM) 7.79%; (second compound 1 µM, first compound 1 µM) 7.05%. Further, the viability, T/C is, setting by setting: (second compound 3.16 µM, first compound 0.00316 µM) 90.1%; (second compound 3.16 µM, first compound 0.01 µM) 64%; (second compound 3.16 µM, first compound 0.0316 µM) 24.4%; (second compound 3.16 µM, first compound 0.1 µM) 11.6%; (second compound 3.16 µM, first compound 0.316 µM) 8.23%; (second compound 3.16 µM, first compound 1 µM) 6.83%. The viability, T/C was 69% (second compound 10 µM, first compound 0.00316 µM); 48.1% (second compound 10 µM, first compound 0.01 µM); 25.1% (second compound 10 µM, first compound 0.0316 µM); 11.4% (second compound 10 µM, first compound 0.1 µM); 7.65% (second compound 10 µM, first compound 0.316 µM); 6.35% (second compound 10 µM, first compound 1 µM).

The values are drawn from PubChem BioAssay AID1918954 (Molecular Pharmacology Branch, DTP, NCI, 2023).
